According to patent US9328138B2 (priority 2011, dated 2016):
Counter-ions that a name gives are not always drawn.

Assays:
[1] = target: T1, HCV genotype 1b (BK) NS3 modified enzyme with a R155K mutation (Hepatitis C virus genotype 1b, UniProt P26663, R1181K); assay: HCV NS3 protease time-resolved fluorescence (TRF) assay, genotype 1b R155K; assay type: biochemical; settings: Ki 1b R155K
T1 construct: HCV genotype 1b (BK) NS3 modified enzyme
Method in brief: (§1)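 Inhibitor titrations are mixed with NS3/NS4A in pH 7.5 HEPES buffer containing 10 mM DTT and 15% glycerol for 10 min before substrate (25 nM final) is added. After 6 h at room temperature, delayed fluorescence is read and fitted to a four-parameter curve for IC50.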

[2] = target: HCV NS3 protease genotype 3a (3A-1) (Hepatitis C virus genotype 3a, UniProt Q81258); assay: HCV NS3 protease time-resolved fluorescence (TRF) assay, genotype 3a; assay type: biochemical; settings: Ki 3a
Method in brief: as §1

[3] = genotype 1b (BK) NS3 R155K, single value
[4] = first of two values printed in the cell (not explained)
[5] = second of two values printed in the cell (not explained)

SMILES	Ki [1, 3] [nM]	Ki [2] [nM]	Ki [1, 4] [nM]	Ki [1, 5] [nM]
C=C[C@@H]1C[C@]1(NC(=O)[C@@H]1C[C@@H]2CN1C(=O)[C@H](C(C)(C)C)NC(=O)O[C@@H]1C[C@H]1CCCCCc1c(nc3cc(C)ccc3c1OCCCN1CCOCC1)O2)C(=O)NS(=O)(=O)C1(C)CC1 [Example 147, (1aR,S,8S,10R,22aR)-5-tert-butyl-N-[(1R,2S)-2-ethenyl-1-{[(1-methylcyclopropyl)sulfonyl]carbamoyl}cyclopropyl]-14-methyl-17-[3-(morpholin-4-yl)propoxy]-3,6-dioxo-1,1a,3,4,5,6,9, 10,18,19,20,21,22,22a-tetradecahydro-8H-7,10-methanocyclopropa[18,19] [1,10,3,6]dioxadiaza cyclononadecino[11,12-b] quinoline-8-carboxamide]	0.26	2.2		
CC1(S(=O)(=O)NC(=O)[C@@]23C[C@H]2/C=C\CCCCC[C@@H]2NC(=O)O[C@@H]4C[C@H]4CCCCCc4c(nc5ccccc5c4OCCN4CCOCC4)O[C@@H]4C[C@@H](C(=O)N3)N(C4)C2=O)CC1 [Example 301, (1aR,5S,11Z,12aS,13aR,16S,19R,31aR)—N-[(1-methylcyclopropyl)sulfonyl]-26-[2-(morpholin-4-yl)ethoxy]-3,15,33-trioxo-1,1a,3,4,5,6,7,8,9,10,12a,13,15,16,18,19,27,28,29,30,31,31a-docosahydro-5,17:16,19-dimethanodicyclopropa[12,13:28,29][1,20,3,14,17]dioxatriazacyclononacosino[21,22-b]quinoline-13a(14H)-carboxamide]	0.35	5.9		
C=C[C@@H]1C[C@]1(NC(=O)[C@@H]1C[C@@H]2CN1C(=O)[C@H](C(C)(C)C)NC(=O)O[C@@H]1C[C@H]1CCCCCc1c(nc3cc(C)ccc3c1OCCCN1CC[C@H](N(C)C)C1)O2)C(=O)NS(=O)(=O)C1(C)CC1 [Example 148, (1aR,5S,8S,10R,22aR)-5-tert-butyl-17-{3-[(3S)-3-(dimethylamino)pyrrolidin-1-yl]propoxy}-N-[(1R,2S)-2-ethenyl-1-{[(1-methylcyclopropyl)ulfonyl]carbamoyl}cyclopropyl]-14-methyl-3,6-dioxo-1,1a,3,4,5,6,9,10,18,19,20,21,22,22a-tetradecahydro-8H-7,10-methanocyclopropa[18,19] [1,10,3,6]dioxadiazacyclononadecino [11,12-b]quinoline-8-carboxamide]	0.065	0.74		
C=C[C@@H]1C[C@]1(NC(=O)[C@@H]1C[C@@H]2CN1C(=O)[C@H](C1CCCC1)NC(=O)O[C@@H]1CCC[C@H]1CC/C=C/Cc1c(nc3ccccc3c1OCCCCO)O2)C(=O)NS(=O)(=O)C1CC1 [Example 68, (3aR,7S,10S,12R,21E,24aS)-7-cyclopentyl-N-{(1R,2S)-1-[(cyclopropylsulfonyl)carbamoyl]-2-ethenylcyclopropyl}-19-(4-hydroxybutoxy)-5,8-dioxo-1,2,3,3a,5,6,7,8,11,12,20,23,24,24a-tetradecahydro-10H-9,12-methanocyclopenta[18,19][1,10,3,6]dioxadiazacyclononadecino[11,12-b]quinoline-10-carboxamide]	0.16	1.6		
C=C[C@@H]1C[C@]1(NC(=O)[C@@H]1C[C@@H]2CN1C(=O)[C@H](C(C)(C)C)NC(=O)O[C@@H]1C[C@H]1CCCCCc1c(nc3ccccc3c1OC1CC3CCC(C1)N3C(=O)OC(C)(C)C)O2)C(=O)NS(=O)(=O)C1(C)CC1 (single isomer, unassigned) [Example 278]		740	0.86	20
C=C[C@@H]1C[C@]1(NC(=O)[C@@H]1C[C@@H]2CN1C(=O)[C@H](C1CCCC1)NC(=O)O[C@@H]1CCC[C@H]1CCCCCc1c(nc3ccccc3c1OCCN1CC3CCC1C3)O2)C(=O)NS(=O)(=O)C1CC1 [Example 60, (3aR,7S,10S,12R,24aR)-19-[2-(2-azabicycle [2.2.1]hept-2-yl)ethoxy]-7-cyclo pentyl-N-{(1R,2S)-1-[(cyclopropylsulfonyl)carbamoyl]-2-ethenylcyclopropyl}-5,8-dioxo-1,2,3,3a,5,6,7,8,11,12,20,21,22,23,24,24a-hexadecahydro-10H-9,12-methanocyclopenta [18,19][1,10,3,6]dioxadiazacyclononadecino [11,12-b]quinoline-10-carboxamide]	0.61	12		
C=C[C@@H]1C[C@]1(NC(=O)[C@@H]1C[C@@H]2CN1C(=O)[C@H](C(C)(C)C)NC(=O)O[C@@H]1CCC[C@H]1CCCCCc1c(nc3ccccc3c1O)O2)C(=O)NS(=O)(=O)C1(COCc2ccccc2)CC1 [Example 36, (3aR,7S,10S,12R,24aR)-N-{(1R,2S)-1-[({1-[(benzyloxy)methyl]cyclopropyl}sulfonyl)carbamoyl]-2-ethenylcyclopropyl}-7-tert-butyl-19-hydroxy-5,8-dioxo-1,2,3,3a,5,6,7,8,11,12, 20,21,22,23,24,24a-hexadeca hydro-10H-9,12-methanocyclopenta[18,19][1,10,3,6] dioxadiazacyclononadecino[11,12-b] quinoline-10-carboxamide]	0.15	3.2		
C=C[C@@H]1C[C@]1(NC(=O)[C@@H]1C[C@@H]2CN1C(=O)[C@H](C(C)(C)C)NC(=O)O[C@@H]1C[C@H]1CCCCCc1c(nc3ccccc3c1OCCCNC1CC1)O2)C(=O)NS(=O)(=O)C1(C)CC1 [Example 183, (1aR,5S,8S,10R,22aR)-5-tert-butyl-17-[3-(cyclopropylamino)propoxy]-N-[(1R,2S)-2-ethenyl-1-{[(1-methylcyclopropyl)sulfonyl]carbamoyl}cyclopropyl]-3,6-dioxo-1,1a,3,4,5,6,9,10, 18,19,20,21,22,22a-tetradeca hydro-8H-7,10-methanocyclopropa[18,19][1,10,3,6] dioxadiazacyclononadecino[11,12-b] quinoline-8-carboxamide]	0.07	0.95		
C=C[C@@H]1C[C@]1(NC(=O)[C@@H]1C[C@@H]2CN1C(=O)[C@H](C1CCCC1)NC(=O)O[C@@H]1CCC[C@H]1CC/C=C/Cc1c(nc3ccccc3c1OCCCN1CCCC(C)(C)C1)O2)C(=O)NS(=O)(=O)C1CC1 [Example 92, (3aR,7S,10S,12R,21E,24aS)-7-cyclo pentyl-N-{(1R,2S)-1-[(cyclopropylsulfonyl)carbamoyl]-2-ethenylcyclopropyl}-19-[3-(3,3-dimethylpiperidin-1-yl)propoxy]-5,8-dioxo-1,2,3,3a,5,6,7,8,11,12,20,23,24,24a-tetradeca hydro-10H-9,12-methano-cyclopenta[18,19][1,10,3,6]dioxa diazacyclononadecino[11,12-b] quinoline-10-carboxamide]	1.6	19		
C=C[C@@H]1C[C@]1(NC(=O)[C@@H]1C[C@@H]2CN1C(=O)[C@H](C1CCCC1)NC(=O)O[C@@H]1CCC[C@H]1CC/C=C/Cc1c(nc3ccccc3c1OCCCn1cccc1)O2)C(=O)NS(=O)(=O)C1(C)CC1 [Example 55, (3aR,7S,10S,12R,21E,24aS)-7-cyclopentyl-N-[(1R,2S)-2-ethenyl-1-{[(1-methylcyclopropyl)sulfonyl]carbamoyl}cyclopropyl]-5,8-dioxo-19-[3-(1H-pyrrol-1-yl)propoxy]-1,2,3,3a,5,6,7,8,11,12,20,23,24,24a-tetradecahydro-10H-9,12-methanocyclopenta[18,19][1,10,3,6] dioxadiazacyclononadecino[11,12-b] quinoline-10-carboxamide]	0.22	3.9		
C=C[C@@H]1C[C@]1(NC(=O)[C@@H]1C[C@@H]2CN1C(=O)[C@H](C(C)(C)C)NC(=O)O[C@@H]1C[C@H]1CCCCCc1c(nc3ccccc3c1OC1CCN(CC3CC3)CC1)O2)C(=O)NS(=O)(=O)C1(C)CC1 [Example 230, (1aR,5S,8S,10R,22aR)-5-tent-butyl-17-{[1-(cyclopropylmethyl)piperidin-4-yl]oxy}-N-[(1R,2S)-2-ethenyl-1-{[(1-methylcyclopropyl)sulfonyl]carbamoyl}cyclopropyl]-3,6-dioxo-1,1a,3,4,5,6,9,10,18,19,20,21,22,22a-tetradecahydro-8H-7,10-methanocyclopropa[18,19][1,10,3,6] dioxadiazacyclononadecino[11,12-b]quinoline-8-carboxamide]	0.065	0.38		
C=C[C@@H]1C[C@]1(NC(=O)[C@@H]1C[C@@H]2CN1C(=O)[C@H](C1CCCCC1)NC(=O)O[C@@H]1C[C@H]1CCCCCc1c(nc3ccccc3c1OC1CCCN(C)C1)O2)C(=O)NS(=O)(=O)C1(C)CC1 (stereo partly drawn) [Example 291, 3-{[(1aR,5S,8S,10R,22aR)-5-cyclohexyl-8-{[(1R,2S)-2-ethenyl-1-{[(1-methylcyclopropyl)sulfonyl]carbamoyl}cyclopropyl]carbamoyl}-3,6-dioxo-1,1a,3,4,5,6,9,10,18,19,20,21,22,22a-tetradecahydro-8H-7,10-methanocyclopropa[18,19][1,10,3,6]dioxadiazacyclononadecino[11,12-b]quinolin-17-yl]oxy}-1-methylpiperidinium formate]		0.774	0.01	0.085
C=C[C@@H]1C[C@]1(NC(=O)[C@@H]1C[C@@H]2CN1C(=O)[C@H](C(C)(C)C)NC(=O)O[C@@H]1C[C@H]1CCCCCc1c(nc3ccccc3c1OC1CC3CCC(C1)N3CC)O2)C(=O)NS(=O)(=O)C1(C)CC1 (single isomer, unassigned) [Example 281]		1.25	0.016	0.125
